{"source": "paper PMC6538953", "about": "“Metal Ions Activate the Human Taste Receptor TAS2R7” (Chemical Senses, 2019)", "target": "T1, human TAS2R7 E264^7.32L mutant (Homo sapiens, UniProt Q9NYW3, E264L)", "T1 construct": "signal peptide: first 45 amino acid residues of rat somatostatin receptor 3 (N); expressed in transfected cells; host or cells: HEK293 PEAKrapid (ATCC CRL-2828), transient, co-transfected with Gα16-gust44", "T1 sequence (Q9NYW3 1-318 E264L)": "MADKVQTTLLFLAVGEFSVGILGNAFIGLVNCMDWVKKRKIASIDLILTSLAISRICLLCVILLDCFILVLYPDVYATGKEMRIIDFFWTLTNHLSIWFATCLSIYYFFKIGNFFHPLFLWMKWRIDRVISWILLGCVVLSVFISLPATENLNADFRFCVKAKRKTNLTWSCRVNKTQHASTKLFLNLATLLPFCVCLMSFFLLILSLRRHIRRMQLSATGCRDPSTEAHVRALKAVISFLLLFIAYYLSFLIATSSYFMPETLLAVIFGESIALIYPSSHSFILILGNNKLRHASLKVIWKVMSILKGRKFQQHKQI", "assay": "Calcium mobilization assay, TAS2R7 mutant E264L", "type": "cell-based", "conditions": "20 mM metal ions except 0.16 mM Al2(SO4)3; cromolyn 10 mM; Figure 6B", "from_the_text": "The coding sequences of human TAS2Rs were amplified from human genomic DNA, then subcloned into pcDNA3.1(+) vector, with the herpes simplex virus glycoprotein D epitope (HSV) at the C-terminal and a signal peptide consisting of the first 45 amino acid residues of the rat somatostatin receptor 3 at the N-terminal, essentially as described previously ([Bufe et al. 2002]). Point mutations in human TAS2R7 (NCBI Reference Sequence: NP_076408.1) were constructed by site-directed mutagenesis. All the constructs were confirmed by Sanger sequencing.\nHuman embryonic kidney 293 (PEAKrapid, ATCC # CRL-2828) cells were cultured in Opti-MEM medium with 4% fetal bovine serum. One day before transfection, cells were seeded on a 96-well plate at a density of 25 000 per well. Cells were then transiently transfected with a TAS2R construct (0.1 µg/well) along with a G protein Gα16-gust44 (0.1 µg/well) construct by Lipofectamine 2000 (0.5 µl/well). For controls, only Gα16-gust44 was used (mock transfection). Twenty-four hours after transfection, cells were washed with HBSS including 10 mM HEPES and loaded with Fluo-4 in the dark for 1 h. After incubation, cells were washed 2 times with HBSS (including 10 mM HEPES), incubated in the dark for another 30 min, and then washed with assay solution once more before running the assay using a FlexStation III reader. Relative fluorescence units (excitation at 494 nm, emission at 516 nm, and auto cutoff at 515 nm) were read every 2 s for 2 min. Calcium mobilization traces were recorded.\nCalcium mobilization traces were raw data obtained from single wells. Changes in fluorescence (ΔF) were calculated as the peak fluorescence minus baseline fluorescence ([Lei et al. 2015]). The calcium mobilization was quantified as the percentage of change (ΔF) relative to baseline (F). […] Calcium mobilization traces and bar graphs along with dose-dependent plots were all generated by GraphPad Prism 7. Analysis of variance with Dunnett’s multiple comparisons test was used for statistical analysis. *P < 0.05. […]", "data": [{"smiles": "O=C(O)c1cc(=O)c2c(OCC(O)COc3cccc4oc(C(=O)O)cc(=O)c34)cccc2o1", "note": "[cromolyn, reference compound]", "values": [{"measurement": "Response of E264L mutant receptor", "result": "reduced"}]}]}
